Data as given in patent US20110046223A1, “TREATMENT OF NEUROFIBROMATOSIS” (RAMOT AT TEL-AVIV UNIVERSITY LTD., priority 2006, published 2011).

Columns and labels:
[1] = system: ST88-14, 90-8, T265P21 and non-NF-1 STS26T cells; assay: cell growth, photomicrographs of control and FTS-treated cells; assay type: cell-based, human; conditions: 50 μM FTS, two days
Protocol: The human NF-1 MPNST cell lines ST88-14, T265P21 and 90-8 and the non-NF-1 human MPNST cell line STS26T were obtained from Dr. Nancy Ratner. T265P21, 90-8, and ST88-14 cells were maintained in RPMI/15% fetal calf serum (FCS) medium and STS26T cells were maintained in DMEM/10% FCS, as described in Weisz, B., et al., supra. Cells were plated at a density of 1×10^6 cells per 10-cm plate for biochemical and immunoblotting assays, 2.5×10^3 cells/well in 24-well plates for cell-growth assays, or on glass cover slips (5×10^4 cells per 35-mm dish) for labeling of actin cytoskeletal elements. The cells were incubated for 24 hours, treated with the indicated concentration of FTS or with the vehicle (0.1% DMSO) (control) for the times specified in each of the experiments, and then subjected to the various assays as described below. The effect of FTS on cell growth was estimated by direct counting of cells collected from each well, as described in Weisz, B., et al., supra.
To determine the effects of the Ras inhibitor FTS on the growth rates of the NF-1 cell lines ST88-14, 90-8, T265P21 and the non-NF-1 STS26T cells, the cells were grown for two days in the absence and in the presence of 50 μM FTS, and then photomicrographed. […] Additionally, cells were grown for three days and then detached, collected, and counted as described in Methods to determine dose-dependent inhibition by FTS.

[2] = system: Ras-GTP; assay: steady-state Ras-GTP, GST-RBD pull-down assay; assay type: cell-based, human; conditions: 75 μM FTS, 48 hours, TS265P21, 90-8, and ST88-14 cells, P<0.03
Protocol: Unless otherwise indicated, cells were lysed 48 hours after being treated with lysis buffer, as described in Haklai, et al., supra. […] Protein bands were visualized by ECL and quantified by densitometry with Image Master VDS-CL (Amersham) using TINA 2.0 software (Ray Tests). To obtain reliable comparisons between replicated experiments for statistical analysis, a standardization procedure was used, in which the density of each given protein band as recorded with its specific Ab, was normalized. […] The standard average density was defined as 1.0, and each of the individually determined bands was related to this value. […] Actin cytoskeletal elements were labeled with rhodamine-phalloidin, and digital fluorescence images were collected on a Zeiss LSM 510 confocal microscope fitted with fluorescein and rhodamine filters, as described in Gana-Weisz, M., et al., supra.
To determine whether the steady-state levels of active Ras in the MPNST cell lines correlated with neurofibromin deficiency, the GST-Ras binding domain of Raf-1 (RBD) pull-down assay and Western immunoblotting with anti-Ras Ab was performed. […] Thus, the relatively large amounts of Ras-GTP detected in the MPNST cell lines and the relatively small amounts in the non-NF-1 MPNST (FIG. 1D) correlated well with the observed neurofibromin deficiency (FIG. 1C). […]

CC(C)=CCC/C(C)=C/CC/C(C)=C/CSc1ccccc1C(=O)O [FTS, S-farnesylthiosalicylic acid]
cell death [1]: no significant cell death
cell number (photomicrographs) [1]: drug-induced reduction in cell number
reduction in steady-state levels of Ras-GTP [2]: 25%-55%
